Columns and labels:
[1] = tested on: hPSC-derived MPPs differentiating into NGN3+ / CHGA+ endocrine progenitors; assay: Endocrine specification of MPPs at stage 5, flow cytometry and qPCR; assay type: cell-based, human; conditions: for CHGA+/NKX6-1+ endocrine progenitor cells by the end of stage 5: assayed at stage 5, day 7
Description: (§1) Differentiations into SC-β cells were performed following a protocol described in [3] and as follows: HUES8 or 1016 cells were seeded at 6×10^5 cells/mL in mTeSR1 media and […] Y27632 (Sigma-Aldrich). The media was changed 48 h later and the differentiations were started 72 h after the cells were seeded. The media changes were as follows:
(§2) Stage 5 EN: Days 14 and 16: S5+0.25 μM Sant1+100 nM RA+1 μM XXI (EMD Millipore)+10 μM Alk5i II (Axxora)+1 μM T3 (EMD Millipore)+20 ng/mL Betacellulin (Thermo Fisher Scientific). Days 18, 20: S5+25 nM RA+1 μM XXI+10 μM Alk5i II+1 μM T3+20 ng/mL Betacellulin.
(§3) Control and experimental samples were collected from differentiations performed in parallel with hPSC cells obtained from the same maintenance batch. Treatments with 0.35 μM verteporfin (Sigma-Aldrich), 10 μM roscovitine (Sellekchem), or DMSO (Sigma-Aldrich) were performed at the last stages of the differentiation including stage 4 (days 9-14), stage 5 (days 14-18), and stage 6 (day 18-25, first 7 days) in ultra-low attachment six-well plates (Corning).
(§4) Differentiated cell clusters were dispersed into a single-cell suspension with TrypLE (Life Technologies) at RT, fixed with 4% paraformaldehyde at 4° C., washed three times in PBS+0.2% bovine serum albumin (Millipore)+0.1% saponin (Sigma), blocked for 30 min at 4° C. in PBS+5% donkey serum+0.1% saponin, incubated with primary antibodies overnight at 4° C., washed, and incubated with secondary antibodies for 1 h at RT. Stained, fixed cells were filtered through a 40-μm nylon mesh into flow cytometry tubes (BD Falcon) and were analyzed for relevant stage-specific marker expression using LSR II flow cytometers (BD Biosciences) and FlowJo for the data analysis. Samples stained with secondary antibodies only were used to gate on cells that are negative and accurately identified cells expressing the markers included in the analysis. For shRNA-infected samples, only infected GFP+ cells were included in the analysis (approximately in 30-40% of all cells). To quantify incorporation of EdU and estimate levels of proliferation, cells pulsed with 10 μM EdU for 4 h were dissociated as described above unless stated otherwise. The Click-IT EdU flow cytometry kit (Invitrogen) was used to detect EdU incorporation following the manufacturer's protocol with minor modifications.
The total RNA was isolated using the Direct-ZOL Miniprep kit (Zymo Research), and RNA was stored at −80° C. in RNA storage solution (Invitrogen) until subsequent analysis. […] Gene expression levels were determined with NanoString nSolver software with default parameters and normalized with the expression of five housekeeping genes (ITCH, RPL15, RPL19, TCEB1, and UBE2D3). […]

SC-β cells = assay: Glucose-stimulated insulin secretion (GSIS) in vitro; assay type: cell-based, human
Description: Approximately 1×10^6 SC-β cells in clusters were washed with Krebs buffer and incubated in low (2.8 mM) glucose Krebs in cell culture inserts (Millicell) to starve cells and remove residual insulin at 37° C. for 1 h. Clusters were washed and incubated in low glucose Krebs for 1 h and the supernantant was collected. They were then transferred to high (20 mM) glucose, incubated for 1 h and the supernatant was collected. For sequential GSIS challenges, this sequence of low- and high-glucose stimulations was repeated twice. At the end, clusters were incubated in 2.8 mM glucose+30 mM KCl Krebs (depolarization challenge) for 1 h and the supernatant was collected. Clusters were dispersed into single cells using TrypLE and cell number was estimated by a Vi-Cell counter (Beckman Coulter). Insulin concentration was determined for supernatant samples using the Human Ultrasensitive Insulin ELISA (ALPCO Diagnostics). Protein extraction was performed with the M-PER extraction reagent (Thermo Scientific), and insulin content was measured for each sample using the human Ultrasensitive Insulin ELISA kit. Insulin secretion levels were normalized to total insulin content for each sample. Stimulation indexes were calculated as a ratio of insulin secretion at high glucose (20 mM) relative to the basal secretion (2.8 mM glucose).

[2] = tested on: hPSC-derived multipotent pancreatic progenitors (MPPs); assay type: cell-based, human; conditions: 0.35 μM verteporfin during stage 4, vs DMSO
Description: as §1
Control and experimental samples were collected from differentiations performed in parallel with hPSC cells obtained from the same maintenance batch. […]
as §4, with “Samples stained with secondary antibodies only were used to gate on cells that are negative and accurately identified cells expressing the markers included in the analysis. For shRNA-infected samples, only infected GFP+ cells were included in the analysis (approximately in 30-40% of all cells).” left out, “The Click-IT EdU flow cytometry kit (Invitrogen) was used to detect EdU incorporation following the manufacturer's protocol with minor modifications.” left out

SC-β cell grafts = assay: Mouse transplantation analysis of SC-β cell grafts under the kidney capsule; assay type: in vivo, immunodeficient SCID-beige mice
Description: Cell clusters were collected at the end of each of the differentiation stages and fixed with 4% paraformaldehyde for 1 h at RT, washed in 30% sucrose, embedded in OCT compound (Tissue-Tek) and sectioned for histological analysis. Clusters were blocked with PBS+ 0.1% Triton X-100 (VWR)+5% donkey serum (Jackson Immunoresearch) for 30 min at RT, incubated with primary antibodies overnight at 4° C., washed, and incubated with secondary antibodies for 1 h at RT. Stained clusters were washed and mounted in Flouromount-G (Invitrogen), covered with coverslips, and sealed with nail polish. Images were taken using a Zeis Axio Imager.Z2 and Apotome.2. Image analysis was performed with ImageJ. To estimate the relative proportion of cells in the graft, four tissue sections from different areas in the graft were imaged, and the relative proportions of relevant cell types were quantified as a percent of cells positive for the relevant marker of the total number DAPI nuclei. […]
Dissociated SC-β cells were transplanted into the kidney capsule of immunodeficient SCID-beige mice (Jackson Laboratory), aged 8-10 weeks. […] Wound clips were removed 10 days after surgery and mice were monitored twice a week.
Mice were then analyzed for graft function at various time points by performing in vivo [3]. […]

[3] = tested on: stem cell-derived β cells (SC-β cells); assay: SC-β cell differentiation assayed at end of stage 6 (stage 6, day 14), flow cytometry; assay type: cell-based, human
Description: as §1, §2
Stage 6 (3: Days 21-35 (change every other day): S3 media. In the final stage, cells were analyzed between 28 and 35 days of the protocol.
as §3
For infection, cell clusters collected from spinner flask suspension cultures were dissociated in Accutase (StemCell Technologies) for 10 min, followed by mechanical dissociation and centrifugation at 230 g for 5 min at room temperature (RT). Cell pellets were resuspended at a density of 2.5 million cells/mL in the stage-matched medium with polybrene reagent (Santa Cruz) at 8 μg/mL. Single-cell suspensions were combined with concentrated lentiviral particles and plated on ultra-low attachment six-well plates on a rocker plate set at 70 rpm in a 37° C. incubator, 5% CO2, and 100% humidity. Feeding schedule was followed depending on the stage of differentiation as described above.
as §4

| Compound | differentiation of MPPs into NGN3+ endocrine progenitors (in words) ([1]; 10 μM roscovitine at stage 5, stage 5, day 4, compared with the verteporfin effect) | CHGA+/NKX6-1+ endocrine progenitor cells by the end of stage 5 ([1]; treatment during stage 5) | levels of insulin secretion per total insulin content at 2.8 mM glucose, 20 mM glucose, and 30 mM KCl (SC-β cells; SC-β cells differentiated with verteporfin vs DMSO control) | insulin secretion at high glucose over low glucose in sequential glucose stimulations (SC-β cells; verteporfin during stages 5 and 6, 20 mM vs 2.8 mM glucose) | stimulation indexes (insulin secretion at 20 mM relative to 2.8 mM glucose) (SC-β cells; verteporfin-treated vs control endocrine cells) | proportion of MPPs coexpressing the proliferation marker Ki67 ([2]; PDX1/Ki67 at end of stage 4) | number of NKX6.1+ progenitors compared with control differentiations ([2]; PDX1/NKX6.1 co-positive cells at end of stage 4) | proportion of SOX9+ cells in the grafts (SC-β cell grafts; cells differentiated in the presence of verteporfin, 12-week post transplantation, SOX9+ of DAPI+, control grafts ~17%) [%] | in vivo glucose-stimulated human insulin secretion (SC-β cell grafts; grafts of cells differentiated in the presence of verteporfin, serum human insulin before and 30 min after glucose injection, 8 weeks post transplantation) | proportion of C-peptide+/NKX6.1+ β cells ([3]; 0.35 μM verteporfin, end of stage 6, control 27.5±4.2%) [%] | glucagon+/C-peptide- alpha cells ([3]; 0.35 μM verteporfin, end of stage 6, vs control) | effect on SC-endocrine and β-cell differentiation in other hPSC cell lines ([3]; 1016 and 13B iPSC lines, C-peptide/NKX6.1 and CHGA/NKX6.1 at stage 6 day 14) | proportion of SOX9+ ductal-like progenitor cells ([3]; treatment during endocrine and β-cell differentiation stages, end of stage 6, vs control) | proportion of Ki67+ proliferating cells ([3]; verteporfin during endocrine and β-cell differentiation stages, end of stage 6, vs control) | impaired endocrine differentiation upon YAPS6A overexpression ([3]; verteporfin treatment of YAPS6A-overexpressing cells, C-peptide/NKX6.1 at stage 6 day 14) | proportion of NGN3+ endocrine progenitors ([1]; treatment during stage 5, assayed at stage 5, day 4, DMSO control 6.4±0.52%) [%] |
| --- | --- | --- | --- | --- | --- | --- | --- | --- | --- | --- | --- | --- | --- | --- | --- | --- |
| CC[C@H](CO)Nc1nc(NCc2ccccc2)c2ncn(C(C)C)c2n1 [roscovitine] | did not have the same effect | not observed |  |  |  |  |  |  |  |  |  |  |  |  |  |  |
| verteporfin |  | increase | significantly higher | increase in insulin secretion at high glucose over low glucose | no statistically significant differences | twofold decrease | significant decrease | 3.1 | robust | 38.6±3.9 | modest but significant increase | robust and independent of the genetic background | decrease | decrease | rescued | 12.1±2 |

Source: patent US20230128770A1, “COMPOSITIONS AND METHODS FOR ENHANCING DIFFERENTIATION OF STEM CELL-DERIVED BETA CELLS” (President and Fellows of Harvard College, priority 2019, published 2023)
